Reference: article PMC10740956, “A Multitarget Approach against Neuroinflammation: Alkyl Substituted Coumarins as Inhibitors of Enzymes Involved in Neurodegeneration” (Antioxidants, 2023)
“And” between values parts separate entries of the source, which are not always exact repeats. Identical values can stand only once.

test system: CTX/TNA2 rat astrocytes pre-stimulated with LPS; assay: Cell metabolic activity assay (MTT), LPS pre-stimulated astrocytes; assay type: cell-based; conditions: pre-stimulated with 0.1 µg/mL LPS 20 h, then compounds 24 and 72 h

Question: How did the “cell metabolic activity (MTT) versus LPS only control” value turn out when C#CCCCCOc1cc(=O)oc2ccccc12 [Compound 2, 4-(Hex-5-yn-1-yloxy)-2H-chromen-2-one] was run?
Answer: able to counteract the LPS-induced increase in cell metabolic activity

Question: C#CCCCCOc1ccc2ccc(=O)oc2c1 [Compound 9, 7-(Hex-5-yn-1-yloxy)-2H-chromen-2-one] was tested. Which “cell metabolic activity (MTT) versus LPS only control” value did it give?
Answer: able to counteract the LPS-induced increase in cell metabolic activity

biological target: hCA IX (Homo sapiens, UniProt Q16790); assay: stopped flow CO2 hydrase assay, hCA IX; assay type: biochemical; conditions: mean of 3 different assays

Question: With C#CCCCCOc1cc(=O)oc2ccccc12 [Compound 2, 4-(Hex-5-yn-1-yloxy)-2H-chromen-2-one] as the compound, how does the Ki read?
Answer: 0.009 µM

Question: With C#CCCCCOc1ccc2ccc(=O)oc2c1 [Compound 9, 7-(Hex-5-yn-1-yloxy)-2H-chromen-2-one] as the compound, how does the Ki read?
Answer: 0.0313 µM

test system: Interleukin-6 secretion from rat astrocytes pre-stimulated with LPS; assay: IL-6 secretion by ELISA in LPS pre-stimulated astrocytes; assay type: cell-based; conditions: 24 h, compared to LPS alone
Method: (§1) Cells were seeded (8 × 10^3/well) and were left to adhere for 24 h in 96-well plates (Falcon®, Corning Incorporated, NY, USA). The medium was removed, incubating the cell monolayer in the presence of increasing concentrations of DEP, AAZ, and test compounds (0–150 µM) for 24–72 h. In a second set of experiments, cells were pre-incubated in the presence of 0.1 µg/mL LPS (lipopolysaccharide from E. coli, purchased from Merck, Darmstadt, Germany) for 20 h and further exposed to DEP, AAZ, and test compounds in the same experimental conditions.
The amounts (pg/mL) of interleukin-6 (IL-6) were analyzed in cell supernatants using an ELISA kit (Enzo Life Sciences Inc., Lausen, Switzerland) following the manufacturer’s instructions. Absorbance was read at 450 nm and cytokine concentration was determined. Data obtained were normalized on MTT optical densities.

Question: For C#CCCCCOc1ccc2ccc(=O)oc2c1 [Compound 9, 7-(Hex-5-yn-1-yloxy)-2H-chromen-2-one], which IL-6 secretion is on record?
Answer: decreases the amount of the cytokine at 0.01 and 10 µM

biological target: T1, hMAO-B (Homo sapiens, UniProt P27338); assay: hMAO-B inhibition, recombinant enzyme, kynuramine substrate, fluorescence; assay type: biochemical; conditions: IC50 hMAO-A/IC50 hMAO-B
T1 construct: purchased Sigma-Aldrich
T1 sequence (P27338 1-520): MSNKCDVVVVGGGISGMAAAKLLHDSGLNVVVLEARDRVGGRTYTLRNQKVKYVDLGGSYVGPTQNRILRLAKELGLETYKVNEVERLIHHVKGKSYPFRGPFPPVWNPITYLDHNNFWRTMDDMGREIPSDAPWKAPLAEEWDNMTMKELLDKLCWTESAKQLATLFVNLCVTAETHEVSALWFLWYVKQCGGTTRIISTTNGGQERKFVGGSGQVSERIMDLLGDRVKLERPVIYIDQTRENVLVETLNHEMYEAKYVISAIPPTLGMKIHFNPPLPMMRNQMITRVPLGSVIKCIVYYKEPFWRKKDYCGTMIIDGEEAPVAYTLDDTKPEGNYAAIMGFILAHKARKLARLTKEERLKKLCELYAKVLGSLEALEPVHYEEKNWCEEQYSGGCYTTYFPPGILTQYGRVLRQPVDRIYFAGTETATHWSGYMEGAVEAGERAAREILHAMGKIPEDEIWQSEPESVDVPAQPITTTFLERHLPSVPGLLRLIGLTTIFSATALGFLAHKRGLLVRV

Question: Which “SI (selectivity index for hMAO-B over hMAO-A)” value does the source give for C#CCCCCOc1cc(=O)oc2ccccc12 [Compound 2, 4-(Hex-5-yn-1-yloxy)-2H-chromen-2-one] here?
Answer: 0.42

Question: Which “SI (selectivity index for hMAO-B over hMAO-A)” value does the source give for C#CCCCCOc1ccc2ccc(=O)oc2c1 [Compound 9, 7-(Hex-5-yn-1-yloxy)-2H-chromen-2-one] here?
Answer: 92.8

same assay, conditions: Lineweaver-Burk plots

Question: For C#CCCCCOc1ccc2ccc(=O)oc2c1 [Compound 9, 7-(Hex-5-yn-1-yloxy)-2H-chromen-2-one], which Ki is on record?
Answer: 0.0023 µM

Question: And the hMAO-B inhibition mechanism?
Answer: competitive inhibition mechanism

same assay, conditions: mean ± SD of triplicate determinations

Question: C#CCCCCOc1cc(=O)oc2ccccc12 [Compound 2, 4-(Hex-5-yn-1-yloxy)-2H-chromen-2-one] was tested. Which IC50 did it give?
Answer: > 10 µM and 25.9 µM

Question: For C#CCCCCOc1ccc2ccc(=O)oc2c1 [Compound 9, 7-(Hex-5-yn-1-yloxy)-2H-chromen-2-one], which IC50 is on record?
Answer: 0.007 ± 0.00035 µM

biological target: T2, AChE (electric eel) (Electrophorus electricus, UniProt O42275); assay: biochemical; conditions: mean ± SD of triplicate determinations
T2 construct: from tissue
T2 sequence (O42275 24-633): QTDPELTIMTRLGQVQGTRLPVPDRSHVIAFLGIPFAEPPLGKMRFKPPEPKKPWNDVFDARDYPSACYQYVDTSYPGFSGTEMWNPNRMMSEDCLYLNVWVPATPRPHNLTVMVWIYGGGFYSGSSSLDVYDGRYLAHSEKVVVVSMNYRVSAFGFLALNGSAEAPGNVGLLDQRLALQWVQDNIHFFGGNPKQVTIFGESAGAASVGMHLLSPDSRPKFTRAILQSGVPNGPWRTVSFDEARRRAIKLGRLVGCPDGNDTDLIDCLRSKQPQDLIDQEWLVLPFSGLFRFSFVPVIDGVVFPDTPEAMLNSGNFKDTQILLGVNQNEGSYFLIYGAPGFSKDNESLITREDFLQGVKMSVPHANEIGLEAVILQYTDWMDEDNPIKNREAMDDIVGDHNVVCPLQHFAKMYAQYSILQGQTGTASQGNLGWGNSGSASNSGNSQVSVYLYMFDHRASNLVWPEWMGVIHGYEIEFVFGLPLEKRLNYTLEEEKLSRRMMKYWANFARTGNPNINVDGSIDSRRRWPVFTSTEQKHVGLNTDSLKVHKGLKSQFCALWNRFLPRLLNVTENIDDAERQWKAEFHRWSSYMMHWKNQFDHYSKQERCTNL

Question: C#CCCCCOc1cc(=O)oc2ccccc12 [Compound 2, 4-(Hex-5-yn-1-yloxy)-2H-chromen-2-one] was tested. Which IC50 did it give?
Answer: > 100 µM

same assay, conditions: read-out: inhibition of AChE at 100 µM, 100 µM

Question: C#CCCCCOc1ccc2ccc(=O)oc2c1 [Compound 9, 7-(Hex-5-yn-1-yloxy)-2H-chromen-2-one] was tested. Which inhibition at 100 µM did it give?
Answer: 50%

biological target: T3, hMAO-A (Homo sapiens, UniProt P21397); assay: hMAO-A inhibition, recombinant enzyme, kynuramine substrate, fluorescence; assay type: biochemical; conditions: Lineweaver-Burk plots
T3 construct: purchased Sigma-Aldrich
T3 sequence (P21397 1-527): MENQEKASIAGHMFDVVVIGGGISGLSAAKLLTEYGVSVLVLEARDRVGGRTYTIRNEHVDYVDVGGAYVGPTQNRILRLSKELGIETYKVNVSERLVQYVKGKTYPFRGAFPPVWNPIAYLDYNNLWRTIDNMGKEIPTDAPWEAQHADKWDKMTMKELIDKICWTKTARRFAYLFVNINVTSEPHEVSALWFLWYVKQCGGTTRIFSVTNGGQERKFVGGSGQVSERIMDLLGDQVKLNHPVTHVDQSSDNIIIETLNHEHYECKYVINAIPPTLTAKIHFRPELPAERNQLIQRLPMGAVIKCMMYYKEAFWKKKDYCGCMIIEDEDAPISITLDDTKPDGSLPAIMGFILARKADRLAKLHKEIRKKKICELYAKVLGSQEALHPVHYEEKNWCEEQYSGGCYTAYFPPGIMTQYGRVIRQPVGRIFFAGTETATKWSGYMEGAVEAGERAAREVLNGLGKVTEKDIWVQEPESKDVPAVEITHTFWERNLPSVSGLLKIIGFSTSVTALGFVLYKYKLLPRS

Question: With C#CCCCCOc1ccc2ccc(=O)oc2c1 [Compound 9, 7-(Hex-5-yn-1-yloxy)-2H-chromen-2-one] as the compound, how does the Ki read?
Answer: 0.146 µM

Question: And the hMAO-A inhibition mechanism?
Answer: competitive inhibition mechanism

same assay, conditions: mean ± SD of triplicate determinations

Question: With C#CCCCCOc1cc(=O)oc2ccccc12 [Compound 2, 4-(Hex-5-yn-1-yloxy)-2H-chromen-2-one] as the compound, how does the IC50 read?
Answer: > 10 µM and 10.8 µM

Question: How did the IC50 turn out when C#CCCCCOc1ccc2ccc(=O)oc2c1 [Compound 9, 7-(Hex-5-yn-1-yloxy)-2H-chromen-2-one] was run?
Answer: 0.65 ± 0.027 µM

biological target: T4, BuChE (equine serum) (Equus caballus, UniProt P81908); assay: biochemical; assay type: biochemical; conditions: Cornish-Bowden plots
T4 construct: from tissue; host or cells: equine serum
T4 sequence (P81908 whole entry): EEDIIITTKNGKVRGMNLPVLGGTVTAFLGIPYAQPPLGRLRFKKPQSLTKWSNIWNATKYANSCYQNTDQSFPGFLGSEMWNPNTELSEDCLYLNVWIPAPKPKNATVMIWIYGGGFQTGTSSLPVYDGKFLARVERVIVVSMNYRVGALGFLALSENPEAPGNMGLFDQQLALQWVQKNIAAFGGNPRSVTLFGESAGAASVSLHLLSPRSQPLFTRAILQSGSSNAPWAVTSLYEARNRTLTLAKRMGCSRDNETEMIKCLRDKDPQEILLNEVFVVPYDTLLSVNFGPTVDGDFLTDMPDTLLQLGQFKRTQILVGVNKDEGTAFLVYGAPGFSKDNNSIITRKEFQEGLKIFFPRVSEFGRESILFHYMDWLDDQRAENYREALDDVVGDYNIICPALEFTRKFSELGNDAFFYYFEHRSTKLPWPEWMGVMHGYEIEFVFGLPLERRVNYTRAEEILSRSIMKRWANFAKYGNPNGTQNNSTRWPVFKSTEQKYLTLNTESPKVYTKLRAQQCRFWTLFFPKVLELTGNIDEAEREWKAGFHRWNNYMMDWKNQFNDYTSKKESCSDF

Question: C#CCCCCOc1cc(=O)oc2ccccc12 [Compound 2, 4-(Hex-5-yn-1-yloxy)-2H-chromen-2-one] was tested. Which “BuChE mode of inhibition” value did it give?
Answer: mixed inhibition mechanism

Question: And the “Kib BuChE (inhibitor binding the ES complex)” value?
Answer: 25 ± 3 µM

same assay, conditions: Cornish-Bowden plots; read-out: Kia BuChE (inhibitor binding the free enzyme) (converted)

Question: With C#CCCCCOc1cc(=O)oc2ccccc12 [Compound 2, 4-(Hex-5-yn-1-yloxy)-2H-chromen-2-one] as the compound, how does the Ki read?
Answer: 13 µM

same assay, conditions: mean ± SD of triplicate determinations

Question: For C#CCCCCOc1cc(=O)oc2ccccc12 [Compound 2, 4-(Hex-5-yn-1-yloxy)-2H-chromen-2-one], which IC50 is on record?
Answer: 21 ± 1 µM

Question: C#CCCCCOc1ccc2ccc(=O)oc2c1 [Compound 9, 7-(Hex-5-yn-1-yloxy)-2H-chromen-2-one] was tested. Which IC50 did it give?
Answer: 51 ± 4 µM

biological target: hCA II (Homo sapiens, UniProt P00918); assay: stopped flow CO2 hydrase assay, hCA II; assay type: biochemical; conditions: mean of 3 different assays

Question: With C#CCCCCOc1cc(=O)oc2ccccc12 [Compound 2, 4-(Hex-5-yn-1-yloxy)-2H-chromen-2-one] as the compound, how does the Ki read?
Answer: > 10 µM

Question: With C#CCCCCOc1ccc2ccc(=O)oc2c1 [Compound 9, 7-(Hex-5-yn-1-yloxy)-2H-chromen-2-one] as the compound, how does the Ki read?
Answer: > 10 µM

biological target: hCA XII (Homo sapiens, UniProt O43570); assay: stopped flow CO2 hydrase assay, hCA XII; assay type: biochemical; conditions: mean of 3 different assays
Sequence (O43570 25-354): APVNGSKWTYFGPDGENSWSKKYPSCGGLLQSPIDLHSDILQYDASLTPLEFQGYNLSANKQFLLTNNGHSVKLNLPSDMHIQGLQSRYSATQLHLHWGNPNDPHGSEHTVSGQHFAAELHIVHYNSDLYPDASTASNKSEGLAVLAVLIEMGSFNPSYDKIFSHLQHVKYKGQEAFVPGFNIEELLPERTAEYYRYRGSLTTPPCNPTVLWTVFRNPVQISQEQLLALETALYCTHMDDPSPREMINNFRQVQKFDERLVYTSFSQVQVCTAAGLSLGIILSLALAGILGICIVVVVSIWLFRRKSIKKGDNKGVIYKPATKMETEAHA

Question: Which Ki does the source give for C#CCCCCOc1cc(=O)oc2ccccc12 [Compound 2, 4-(Hex-5-yn-1-yloxy)-2H-chromen-2-one] here?
Answer: 0.0048 µM

Question: C#CCCCCOc1ccc2ccc(=O)oc2c1 [Compound 9, 7-(Hex-5-yn-1-yloxy)-2H-chromen-2-one] was tested. Which Ki did it give?
Answer: 0.0059 µM

biological target: hCA I (Homo sapiens, UniProt P00915); assay: stopped flow CO2 hydrase assay, hCA I; assay type: biochemical; conditions: mean of 3 different assays
Sequence (P00915 whole entry): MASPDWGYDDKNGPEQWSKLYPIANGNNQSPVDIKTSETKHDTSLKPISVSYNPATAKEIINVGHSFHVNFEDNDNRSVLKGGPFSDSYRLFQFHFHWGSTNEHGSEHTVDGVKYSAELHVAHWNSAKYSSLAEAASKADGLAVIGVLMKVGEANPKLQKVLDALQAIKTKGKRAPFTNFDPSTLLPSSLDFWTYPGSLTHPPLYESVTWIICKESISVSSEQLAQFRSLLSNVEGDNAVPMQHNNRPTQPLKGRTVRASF

Question: With C#CCCCCOc1cc(=O)oc2ccccc12 [Compound 2, 4-(Hex-5-yn-1-yloxy)-2H-chromen-2-one] as the compound, how does the Ki read?
Answer: > 10 µM

Question: C#CCCCCOc1ccc2ccc(=O)oc2c1 [Compound 9, 7-(Hex-5-yn-1-yloxy)-2H-chromen-2-one] was tested. Which Ki did it give?
Answer: > 10 µM

test system: CTX/TNA2 rat astrocytes; assay: Cell metabolic activity assay (MTT), non-inflammatory conditions; assay type: cell-based; conditions: 0-150 µM, 24-72 h

Question: With C#CCCCCOc1cc(=O)oc2ccccc12 [Compound 2, 4-(Hex-5-yn-1-yloxy)-2H-chromen-2-one] as the compound, how does the “cell metabolic activity (MTT), biocompatibility” value read?
Answer: good biocompatibility, with a cell metabolic activity significantly decreased only after 48 h and at the highest concentration tested (150 µM)

biological target: hCA VII (Homo sapiens, UniProt P43166); assay: stopped flow CO2 hydrase assay, hCA VII; assay type: biochemical; conditions: mean of 3 different assays
Sequence (P43166 whole entry): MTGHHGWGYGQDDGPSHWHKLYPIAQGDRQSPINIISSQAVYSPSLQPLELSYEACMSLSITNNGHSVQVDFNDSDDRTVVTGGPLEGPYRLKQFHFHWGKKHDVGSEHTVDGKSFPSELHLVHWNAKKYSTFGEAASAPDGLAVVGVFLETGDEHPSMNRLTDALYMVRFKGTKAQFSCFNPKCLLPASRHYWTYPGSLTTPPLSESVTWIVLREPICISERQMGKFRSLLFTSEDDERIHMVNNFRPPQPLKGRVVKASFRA

Question: With C#CCCCCOc1cc(=O)oc2ccccc12 [Compound 2, 4-(Hex-5-yn-1-yloxy)-2H-chromen-2-one] as the compound, how does the Ki read?
Answer: 0.0469 µM

Question: With C#CCCCCOc1ccc2ccc(=O)oc2c1 [Compound 9, 7-(Hex-5-yn-1-yloxy)-2H-chromen-2-one] as the compound, how does the Ki read?
Answer: 0.0771 µM

test system: H2O2 generation in rat astrocytes pre-stimulated with LPS; assay: Hydrogen peroxide measurement in supernatants of LPS pre-stimulated astrocytes; assay type: cell-based; conditions: 24 h, 10 µM
Method: as §1
At 24 h, cell supernatants were taken from the cultures used for the MTT assay. The quantitative determination of H2O2 released in supernatants was performed by means of a H2O2 colorimetric kit (cat. no. ADI-907-015, Enzo Life Sciences, Inc., Farmingdale, NY, USA). Then, 50 µL of supernatant/well was used and 100 µL of color reagent was added in each well. Next, wells were mixed and afterwards incubated for 30 min at r.t. The OD was measured following the manufacturer’s instructions.

Question: Which H2O2 generation does the source give for C#CCCCCOc1ccc2ccc(=O)oc2c1 [Compound 9, 7-(Hex-5-yn-1-yloxy)-2H-chromen-2-one] here?
Answer: restoring it to the untreated control levels
